“And” between values parts separate entries of the source, which are not always exact repeats. Equal entries are not always repeated.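 Assay format: 96-well plates, 48-hour exposure. GI50 = concentration required for 50% inhibition of growth.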 The source made the active and inactive calls. No stated cut-off is given here; in the data, active = GI50 up to about 1.1 µM and inactive = higher.
Tests used:
Test in all cases: NCI tumour cell line growth inhibition, 48 h
[1] = system: MOLT-4
[2] = system: HCT-116
[3] = system: SK-MEL-5
[4] = system: CAKI-1
[5] = system: HCT-15
[6] = system: SR
[7] = system: Hs-578T
[8] = system: Malme-3M
[9] = system: UACC-257
[10] = system: SF-295
[11] = system: EKVX
[12] = system: OVCAR-3
[13] = system: A549
[14] = system: MDA-MB-435
[15] = system: SF-539
[16] = system: SNB-75
[17] = system: CCRF-CEM

SMILES	GI50 [1]	GI50 [2]	GI50 [3]	GI50 [4]	GI50 [5] [µM]	GI50 [6]	GI50 [7]	GI50 [8]	GI50 [9]	GI50 [10]	GI50 [11]	GI50 [12]	GI50 [13]	GI50 [14]	GI50 [15]	GI50 [16]	GI50 [17]
CC(C)CC1c2[nH]c3ccccc3c2C[C@H]2C(=O)NC(Cc3c[nH]c4ccccc34)C(=O)N12 (some centres not stated)	13.2 µM (inactive)	11.2 µM (inactive)	12.7 µM (inactive)	23.7 µM (inactive)	14.6	14 µM (inactive)	7.11 µM (inactive)	14.6 µM (inactive)	14.3 µM (inactive)	20.4 µM (inactive)	16 µM (inactive)	7.74 µM (inactive)	12.5 µM (inactive)	16 µM (inactive)			
CC(=O)Nc1ccc(COC(O)CN2CCCCC2)cc1[N+](=O)[O-] (configuration not stated)	> 100 µM (inactive)	> 100 µM (inactive)	> 100 µM (inactive)	> 100 µM (inactive)	> 100	> 100 µM (inactive)		> 100 µM (inactive)	> 100 µM (inactive)	> 100 µM (inactive)		> 100 µM (inactive)	> 100 µM (inactive)	> 100 µM (inactive)	> 100 µM (inactive)	> 100 µM (inactive)	> 100 µM (inactive)
CCCCCCCCCCCCCCCCOCC(CCl)OP(=O)(O)OP(=O)(O)OCC1OC(n2ccc(N)nc2=O)C(O)C1O (configuration not stated)	> 100 µM (inactive)	> 100 µM (inactive)	> 100 µM (inactive)	> 100 µM (inactive)	> 100		> 100 µM (inactive)	> 100 µM (inactive)	> 100 µM (inactive)	> 100 µM (inactive)	> 100 µM (inactive)	> 100 µM (inactive)	> 100 µM (inactive)	> 100 µM (inactive)	> 100 µM (inactive)	6.07 µM (inactive)	> 100 µM (inactive)
CNC(C#N)c1ccc(OC)cc1 (configuration not stated)	43.7 µM (inactive)	57 µM (inactive)	25.8 µM (inactive)	> 100 µM (inactive)	> 100		> 100 µM (inactive)	> 100 µM (inactive)	54.8 µM (inactive)	> 100 µM (inactive)	> 100 µM (inactive)	61 µM (inactive)	> 100 µM (inactive)	33.6 µM (inactive)	> 100 µM (inactive)		53.3 µM (inactive)
COc1ccc(COC(=O)NNC(=O)C2CSC(c3ccccc3)N2C(C)=O)cc1 (configuration not stated)	> 100 µM (inactive)	> 100 µM (inactive)	> 100 µM (inactive)	> 100 µM (inactive)	> 100		> 100 µM (inactive)	> 100 µM (inactive)	> 100 µM (inactive)	> 100 µM (inactive)	> 100 µM (inactive)	> 100 µM (inactive)	> 100 µM (inactive)	> 100 µM (inactive)	> 100 µM (inactive)	> 100 µM (inactive)	> 100 µM (inactive)
C=C1c2nc3ccccc3n2C=C(c2ccc(Cl)cc2)N1c1ccccc1	> 100 µM (inactive)	14 µM (inactive)	16.1 µM (inactive)	15.7 µM (inactive)	12.1	5.94 µM (inactive)		12.1 µM (inactive)	18.7 µM (inactive)	11.7 µM (inactive)	14.8 µM (inactive)	17.2 µM (inactive)	14.1 µM (inactive)	21 µM (inactive)	13.2 µM (inactive)	3.5 µM (inactive)	> 100 µM (inactive)
Cc1[nH]c2ncn3[nH]c(=S)nc3c2c1Cc1ccccc1	> 100 µM (inactive)	> 100 µM (inactive)	> 100 µM (inactive)	> 100 µM (inactive)	> 100		62.7 µM (inactive)	> 100 µM (inactive)	> 100 µM (inactive)	> 100 µM (inactive)	> 100 µM (inactive)	> 100 µM (inactive)	> 100 µM (inactive)	> 100 µM (inactive)	> 100 µM (inactive)	25.2 µM (inactive)	76.4 µM (inactive)
CSc1ncc2c(n1)-c1ccccc1OC2N1CCOCC1 (configuration not stated)	43.3 µM (inactive)	69.7 µM (inactive)	40.4 µM (inactive)	50.8 µM (inactive)	53.7	64.9 µM (inactive)	61.2 µM (inactive)		81.8 µM (inactive)	49.7 µM (inactive)	76 µM (inactive)	56.2 µM (inactive)	97.7 µM (inactive)	> 100 µM (inactive)	> 100 µM (inactive)	44.5 µM (inactive)	47.1 µM (inactive)
CC(=O)O[C@H]1CC[C@@]2(C)C(=C[C@H](c3ccc(O)cc3)[C@H]3[C@@H]4CC[C@H](OC(C)=O)[C@@]4(C)CC[C@@H]32)C1	18.4 µM (inactive)	15.8 µM (inactive)	11.4 µM (inactive)	18.6 µM (inactive)	12.3			17.9 µM (inactive)	22 µM (inactive)	29 µM (inactive)	20.8 µM (inactive)	17.3 µM (inactive)	16.3 µM (inactive)	25.2 µM (inactive)	21 µM (inactive)	24.7 µM (inactive)	21.3 µM (inactive)
Cc1ccc(/C=C2\NC(=S)NC2=O)cc1	> 100 µM (inactive)	> 100 µM (inactive)	> 100 µM (inactive)	> 100 µM (inactive)	> 100		> 100 µM (inactive)	> 100 µM (inactive)		> 100 µM (inactive)	62.8 µM (inactive)	> 100 µM (inactive)	> 100 µM (inactive)	> 100 µM (inactive)	> 100 µM (inactive)	> 100 µM (inactive)	> 100 µM (inactive)
CN(CCCCN(C)CCc1ccc(Cl)c(Cl)c1)CCCCN1CCCC1	3.08 µM (inactive)	1.51 µM (inactive)	0.902 µM (active)	1.6 µM (inactive)	1.69		0.977 µM (active)	1.91 µM (inactive)	1.63 µM (inactive)	1.83 µM (inactive)	1.63 µM (inactive)	2.05 µM (inactive)	1.65 µM (inactive)	0.465 µM (active)	1.01 µM (active)	1.73 µM (inactive)	< 0.0235 µM (active)
CCC/C(C)=N/NC(=S)SC.CCC/C(C)=N/NC(=S)SC.[Zn+2]	1.47 µM (inactive)	10.4 µM (inactive)	11.2 µM (inactive)	13.7 µM (inactive)	2.24		15.7 µM (inactive)	2.9 µM (inactive)	7.46 µM (inactive)	3.15 µM (inactive)	15 µM (inactive)	10.2 µM (inactive)	12.6 µM (inactive)	11.4 µM (inactive)	13.7 µM (inactive)	18.7 µM (inactive)	2.16 µM (inactive)
Nc1ccc(-c2nc3cc(F)ccc3s2)cc1CO	> 100 µM (inactive)	53.6 µM (inactive)	> 96.8 µM (inactive)	> 56.5 µM (inactive)	41		34.4 µM (inactive)	> 72.3 µM (inactive)	> 69.3 µM (inactive)	14.4 µM (inactive)	17.8 µM (inactive)	36.2 µM (inactive)	> 69 µM (inactive)	> 100 µM (inactive)	20.1 µM (inactive)	19.2 µM (inactive)	89.5 µM (inactive)
CCCCCCCCCCCCCCCCCCNc1nc(=O)n(C2CC(O)C(COP(=O)(O)O)O2)cc1F (configuration not stated)	36 µM (inactive)	81.7 µM (inactive)	> 100 µM (inactive)	15 µM (inactive)	> 100		> 100 µM (inactive)	> 100 µM (inactive)	> 100 µM (inactive)	> 80.7 µM (inactive)	99.5 µM (inactive)	> 100 µM (inactive)	17.4 µM (inactive)	> 100 µM (inactive)	15 µM (inactive)	> 100 µM (inactive)	38 µM (inactive)
O=[N+]([O-])/C(C(Cl)=C(Cl)Cl)=C(\N1CCCCC1)n1cncn1	> 24.2 µM (inactive)	22.2 µM (inactive)	12.6 µM (inactive)	10.6 µM (inactive)	16	3.99 µM (inactive)		15.9 µM (inactive)	17.5 µM (inactive)	17.1 µM (inactive)	15.8 µM (inactive)	16 µM (inactive)	19.7 µM (inactive)	17.9 µM (inactive)	17.1 µM (inactive)	23 µM (inactive)	3.79 µM (inactive)
O=C1c2ccccc2-c2nc(-c3ccncc3)cc3c2c1nc1ccccc13	2.83 µM (inactive)	6.4 µM (inactive)		> 100 µM (inactive)	19	2.38 µM (inactive)		4.27 µM (inactive)	19.1 µM (inactive)	11.3 µM (inactive)	34.2 µM (inactive)	1.52 µM (inactive)	13.6 µM (inactive)	16 µM (inactive)	22 µM (inactive)	32.5 µM (inactive)	9.33 µM (inactive)
CC1(C=O)CCC23COC4(CCC5C6(C)CCC(OC7OCC(OC8OC(CO)C(O)C(OC9OC(CO)C(O)C(O)C9O)C8OC8OCC(O)C(O)C8O)C(O)C7OC7OC(CO)C(O)C(O)C7O)C(C)(C)C6CCC5(C)C4(C)CC2O)C3C1 (configuration not stated)	0.367 µM (active)	1.44 µM (inactive)	1.61 µM (inactive)	1.12 µM (active)	1.53	0.132 µM (active)	1.5 µM (inactive)		1.75 µM (inactive)	0.908 µM (active)	1.5 µM (inactive)	1.47 µM (inactive)	1.63 µM (inactive)	1.48 µM (inactive)	1.3 µM (inactive)	1.26 µM (inactive)	0.221 µM (active)
O=C1CC(C(OCc2ccccc2)C(OCc2ccccc2)C(COCc2ccccc2)OCc2ccccc2)CC(=O)N1 (configuration not stated)		> 75 µM (inactive)	> 75 µM (inactive)		> 75	> 75 µM (inactive)	> 75 µM (inactive) and 88.7 µM (inactive)	> 100 µM (inactive)	> 100 µM (inactive)	> 75 µM (inactive)	> 100 µM (inactive)		72.4 µM (inactive)	> 75 µM (inactive)	> 100 µM (inactive)		

Source: ChEMBL document CHEMBL1201862, “PubChem BioAssay data set” (2004)
